Measurements reported in publication PMC8780978, “Antiplatelet and Antithrombotic Effects of Isaridin E Isolated from the Marine-Derived Fungus via Downregulating the PI3K/Akt Signaling Pathway” (Marine Drugs, 2021).
Where a SMILES comes first, the peptide text is derived from it. [ ]: non-standard residue; d: D form. ξ: configuration not given here. ξLac(3-iPr) = CC(C)CC(O)C(=O)O; NMeV = CN[C@H](C(=O)O)C(C)C; βAla = NCCC(=O)O

Tests used:
[1] = Hematologic parameters after single intragastric dose; assay type: in vivo, mice; conditions: 3 h
Experimental: Mice were intragastrically administrated with a single dose of isaridin E (100 mg/kg) or vehicle at 3 h before anesthesia. Whole blood was drawn from the abdominal aorta and collected in K2EDTA anticoagulant tubes to evaluate the hematologic parameters with an automatic hematology analyzer (BC-2800 vet, Mindray, Shenzhen, China). The citrated blood was centrifuged at 1500× g (25 °C) for 15 min to obtain the platelet-poor plasma (PPP). PPP was then used to measure the coagulation parameters, including ATPP, PT, TT, and FIB, with an automated coagulation analyzer (RAC-030, Rayto, Shenzhen, China).

[2] = tested on: PI3K; assay: ADP-induced phosphorylation of PI3K, Western blot; assay type: cell-based, human; conditions: 50 μM, Meg-01 cells
Experimental: Western blotting was performed as described in our previous study. Meg-01 cells were lysed with protein lysis buffer (P0013, Beyotime Biotechnology, Haimen, China) containing a protease inhibitor cocktail (539131, Millipore, Billerica, MA, USA) and phosphatase inhibitor cocktail (K1012, APExBIO, Houston, TX, USA). The samples (20 μg) were then separated by 8% SDS-PAGE gel and transferred onto PVDF membranes. The PDVF membranes were incubated with primary antibodies at 4 °C for 12 h. After incubating with the appropriate HRP-conjugated secondary antibodies (7076, 7074, Cell Signaling Technology, Danvers, MA, USA), blots were detected with chemiluminescent HRP substrate (P90719, Millipore, Billerica, MA, USA) using the ChemiDoc XRS+ system (BIO-RAD, Hercules, CA, USA). Primary antibodies against the following antigens were listed: PI3K (4257, Cell Signaling Technology, Danvers, MA, USA), Phospho-PI3K (ab226842, Abcam, Cambridge, UK), Akt (4691, Cell Signaling Technology, Danvers, MA, USA), Phospho-Akt (4056, Cell Signaling Technology, Danvers, MA, USA), and β-actin (66009-1, Proteintech, Rosemont, IL, USA).

[3] = tested on: washed mouse platelets; assay: LDH (lactate dehydrogenase) release cytotoxicity assay; assay type: cell-based; conditions: for LDH Release (%): 37 °C, 30 min, n = 6
Excerpt: We first examined whether isaridin E has cytotoxic effects on washed mouse circulating platelets using the LDH (lactate dehydrogenase) cytotoxicity assay kit. Destruction of the cell membrane caused by apoptosis or necrosis leads to the release of enzymes in the cytoplasm into the culture medium, including LDH, with stable enzyme activity. Therefore, the quantitative analysis of the percentage of LDH leakage from the platelets is commonly used to evaluate the cytotoxic effects of tested compounds, and LDH > 10% was considered cytotoxic. […] Next, we tested whether treatment with isaridin E for 3 h (a single intragastric administration at 100 mg/kg) affects hematological and coagulation parameters in vivo.
(§1) Washed platelets were prepared as previously described by Zhongren Ding et al.. Whole blood was collected from the abdominal aorta using a syringe containing 3.8% sodium citrate (9:1, V/V) as an anticoagulant. Citrated blood (2 mL) was centrifuged at room temperature at 300× g for 2 min to obtain platelet-rich plasma (PRP). Platelets were obtained by the further centrifugation of PRP at 700× g for 2 min, and resuspended in Tyrode’s buffer (138 mM of NaCl, 2.7 mM of KCl, 1 mM of MgCl2, 3 mM of NaH2PO4, 5 mM of glucose, 10 mM of HEPES, pH 7.4) with 0.02 U/mL apyrase (A6410, Sigma-Aldrich, St. Louis, MO, USA) to a density of 3 × 10^8 of platelets/mL for use.
The possible cytotoxic effect of isaridin E on mouse platelets was assessed with the LDH Cytotoxicity Assay Kit (C0016, Beyotime Biotechnology, Haimen, China). Washed mouse platelets were pretreated with vehicle or different concentrations of isaridin E ([…], 12.5, 25, 50, 100, 200, or 400 μM) at 37 °C for 30 min, and then collected for detection following the manufacturer’s instructions. The cytotoxic effects were determined using the percentage of LDH leakage released from the platelets (% LDH release).

[4] = tested on: washed mouse platelets; assay: ADP-induced platelet activation, CD62p surface expression by flow cytometry; assay type: cell-based; conditions: 30 min, then 50 μM ADP 5 min, vehicle 35.6 ± 1.7%
Experimental: as §1
Washed mouse platelets were pretreated with vehicle or different concentrations of isaridin E for 30 min at 37 °C, followed by stimulation with 50 μM ADP for 5 min. Platelets were then stained with FITC-conjugated anti-CD41 antibody (133904, Biolegend, San Diego, CA, USA) and PE-conjugated anti-CD62p antibody (148306, Biolegend, San Diego, CA, USA) for 20 min at 25 °C in the dark. Then, platelets were fixed in 1% paraformaldehyde solution and analyzed with a CytoFLEX flow cytometer (Beckman Coulter, Brea, CA, USA).

[5] = 100 mg/kg single gavage, n=5 mice

Compound: CC(C)CC1OC(=O)CCNC(=O)[C@H](C(C)C)N(C)C(=O)[C@H](C(C)C)N(C)C(=O)[C@H](Cc2ccccc2)NC(=O)[C@@H]2CCCN2C1=O (stereo partly drawn) [Isaridin E, cyclo-[(OH) (S)-HMPA^1-L-Pro^2-L-Phe^3-N-Me-L-Val^4-N-Me-L-Val^5-β-Ala^6(CO)]] (cyclo(F[NMeV][NMeV][βAla][ξLac(3-iPr)]P))
- HCT (hematocrit) [1, 5]: 39.5 ± 1.4%
- LY % (lymphocyte percentage) [1, 5]: 83.1 ± 2.5%
- MCH (mean red blood cell hemoglobin) [1, 5]: 17.3 ± 0.4 pg
- MCHC (mean red blood cell hemoglobin concentration) [1, 5]: 330 ± 8 g/L
- MCV (mean red blood cell volume) [1, 5]: 51.1 ± 0.8 fL
- MO % (monocyte percentage) [1, 5]: 2.7 ± 0.6%
- MPV (mean platelet volume) [1, 5]: 5.3 ± 0.3 fL
- NE % (neutrophil percentage) [1, 5]: 14.8 ± 2.2%
- PLT (platelet count) [1, 5]: 1233 ± 65 10^9/L
- RBC (red blood cell) [1, 5]: 7.8 ± 0.3 10^12/L
- RDW (red cell distribution width) [1, 5]: 15.2 ± 0.5%
- WBC (white blood cell) [1, 5]: 3.3 ± 0.5 10^9/L
- hematological parameters versus NS- and vehicle-treated groups ([1]; 100 mg/kg single intragastric administration): no significant differences
- ADP-induced phosphorylation of PI3K ([2]; 30 min, ADP 5 μM 5 min): significantly suppressed
- total protein expression of PI3K [2]: without altering
- cytotoxicity on washed platelets ([3]; 6.25-400 μM, LDH > 10% considered cytotoxic): no obvious cytotoxicity
- LDH Release (%) ([3]; isaridin E 6.25 μM): 0.86 ± 0.03%
- LDH Release (%) ([3]; isaridin E 12.5 μM): 0.89 ± 0.04%
- LDH Release (%) ([3]; isaridin E 25 μM): 0.88 ± 0.03%
- LDH Release (%) ([3]; isaridin E 50 μM): 0.86 ± 0.03%
- LDH Release (%) ([3]; isaridin E 100 μM): 0.88 ± 0.04%
- LDH Release (%) ([3]; isaridin E 200 μM): 0.84 ± 0.02%
- LDH Release (%) ([3]; isaridin E 400 μM): 0.85 ± 0.02%
- percentage of CD62p expression on the platelet surface ([4]; 25 μM): 29.6 ± 1.0%
- percentage of CD62p expression on the platelet surface ([4]; 50 μM): 16.0 ± 1.4%
- percentage of CD62p expression on the platelet surface ([4]; 100 μM): 8.4 ± 1.0%
